# Data as given in PubChem BioAssay (NCI).
#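 Cells were grown in 96-well plates and exposed to each compound for 48 hours at five concentrations; endpoints were interpolated linearly between bracketing concentrations, or set to the highest concentration if not reached. GI50: concentration for 50% inhibition of growth. The concentration for full growth arrest is given as TGI.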
# Columns and labels:
# Experiment in all cases: growth of human tumour cells (NCI), 48 h
# 786-0 renal = test system: 786-0 renal
# A498 renal = test system: A498 renal
# A549 NSCLC = test system: A549 NSCLC
# ACHN renal = test system: ACHN renal
# BT-549 breast = test system: BT-549 breast
# CAKI-1 renal = test system: CAKI-1 renal
# CCRF-CEM leukemia = test system: CCRF-CEM leukemia
# COLO 205 colon = test system: COLO 205 colon
# DU-145 prostate = test system: DU-145 prostate
# HCC-2998 colon = test system: HCC-2998 colon
# HCT-116 colon = test system: HCT-116 colon
# HCT-15 colon = test system: HCT-15 colon
# HL-60(TB) leukemia = test system: HL-60(TB) leukemia
# HOP-62 NSCLC = test system: HOP-62 NSCLC
# HOP-92 NSCLC = test system: HOP-92 NSCLC
# HS 578T breast = test system: HS 578T breast
# HT29 colon = test system: HT29 colon
# IGROV1 ovarian = test system: IGROV1 ovarian
# K-562 leukemia = test system: K-562 leukemia
# KM12 colon = test system: KM12 colon
# LOX IMVI melanoma = test system: LOX IMVI melanoma
# M14 melanoma = test system: M14 melanoma
# MALME-3M melanoma = test system: MALME-3M melanoma
# MCF7 breast = test system: MCF7 breast
# MDA-MB-231 breast = test system: MDA-MB-231 breast
# MDA-MB-435 = test system: MDA-MB-435
# MOLT-4 leukemia = test system: MOLT-4 leukemia
# NCI-H226 lung = test system: NCI-H226 lung
# NCI-H23 lung = test system: NCI-H23 lung
# NCI-H460 lung = test system: NCI-H460 lung
# NCI-H522 lung = test system: NCI-H522 lung
# NCI/ADR-RES ovarian = test system: NCI/ADR-RES ovarian
# OVCAR-3 ovarian = test system: OVCAR-3 ovarian
# OVCAR-4 ovarian = test system: OVCAR-4 ovarian
# OVCAR-5 ovarian = test system: OVCAR-5 ovarian
# OVCAR-8 ovarian = test system: OVCAR-8 ovarian
# PC-3 prostate = test system: PC-3 prostate
# RPMI-8226 leukemia = test system: RPMI-8226 leukemia
# RXF 393 renal = test system: RXF 393 renal
# SF-268 CNS = test system: SF-268 CNS
# SF-295 CNS = test system: SF-295 CNS
# SF-539 CNS = test system: SF-539 CNS
# SK-MEL-2 melanoma = test system: SK-MEL-2 melanoma
# SK-MEL-28 melanoma = test system: SK-MEL-28 melanoma
# SK-MEL-5 melanoma = test system: SK-MEL-5 melanoma
# SK-OV-3 ovarian = test system: SK-OV-3 ovarian
# SN12C renal = test system: SN12C renal
# SNB-19 CNS = test system: SNB-19 CNS
# SNB-75 CNS = test system: SNB-75 CNS
# SR leukemia = test system: SR leukemia
# SW-620 colon = test system: SW-620 colon
# T-47D breast = test system: T-47D breast
# TK-10 renal = test system: TK-10 renal
# U251 CNS = test system: U251 CNS
# UACC-257 melanoma = test system: UACC-257 melanoma
# UACC-62 melanoma = test system: UACC-62 melanoma
# UO-31 renal = test system: UO-31 renal
smiles,measurement,setting,value
COC(=O)[C@H]1CCCN1C(=O)[C@H]1CCCN1C(=O)[C@H](Cc1c[nH]c2ccccc12)NC(=S)Nc1cc(C(F)(F)F)cc(C(F)(F)F)c1,GI50,786-0 renal,13.8 µM
same,TGI,786-0 renal,83 µM
same,GI50,A498 renal,6.54 µM
same,TGI,A498 renal,> 100 µM
same,GI50,A549 NSCLC,4.08 µM
same,TGI,A549 NSCLC,> 100 µM
same,GI50,ACHN renal,4.12 µM
same,TGI,ACHN renal,> 100 µM
same,GI50,BT-549 breast,8.74 µM
same,TGI,BT-549 breast,46 µM
same,GI50,CAKI-1 renal,15 µM
same,TGI,CAKI-1 renal,> 100 µM
same,GI50,CCRF-CEM leukemia,7.23 µM
same,TGI,CCRF-CEM leukemia,> 100 µM
same,GI50,COLO 205 colon,2.08 µM
same,TGI,COLO 205 colon,4.28 µM
same,GI50,DU-145 prostate,6.53 µM
same,TGI,DU-145 prostate,> 100 µM
same,GI50,HCC-2998 colon,2.42 µM
same,TGI,HCC-2998 colon,5.96 µM
same,GI50,HCT-116 colon,4.27 µM
same,TGI,HCT-116 colon,> 100 µM
same,GI50,HCT-15 colon,6.26 µM
same,TGI,HCT-15 colon,> 100 µM
same,GI50,HL-60(TB) leukemia,4.19 µM
same,TGI,HL-60(TB) leukemia,57.2 µM
same,GI50,HOP-62 NSCLC,8.28 µM
same,TGI,HOP-62 NSCLC,> 100 µM
same,GI50,HOP-92 NSCLC,1.7 µM
same,TGI,HOP-92 NSCLC,6.97 µM
same,GI50,HS 578T breast,6.1 µM
same,TGI,HS 578T breast,> 100 µM
same,GI50,HT29 colon,2.95 µM
same,TGI,HT29 colon,8.72 µM
same,GI50,IGROV1 ovarian,6.97 µM
same,TGI,IGROV1 ovarian,> 100 µM
same,GI50,K-562 leukemia,5.71 µM
same,TGI,K-562 leukemia,> 100 µM
same,GI50,KM12 colon,4.47 µM
same,TGI,KM12 colon,> 100 µM
same,GI50,LOX IMVI melanoma,3.19 µM
same,TGI,LOX IMVI melanoma,26.3 µM
same,GI50,M14 melanoma,7.15 µM
same,TGI,M14 melanoma,64.1 µM
same,GI50,MALME-3M melanoma,14.9 µM
same,TGI,MALME-3M melanoma,> 100 µM
same,GI50,MCF7 breast,2.99 µM
same,TGI,MCF7 breast,> 100 µM
same,GI50,MDA-MB-231 breast,2.18 µM
same,TGI,MDA-MB-231 breast,5.25 µM
same,GI50,MDA-MB-435,5.6 µM
same,TGI,MDA-MB-435,> 100 µM
same,GI50,MOLT-4 leukemia,4.88 µM
same,TGI,MOLT-4 leukemia,> 100 µM
same,GI50,NCI-H226 lung,9.63 µM
same,TGI,NCI-H226 lung,> 100 µM
same,GI50,NCI-H23 lung,7.22 µM
same,TGI,NCI-H23 lung,> 100 µM
same,GI50,NCI-H460 lung,3.46 µM
same,TGI,NCI-H460 lung,> 100 µM
same,GI50,NCI-H522 lung,4.49 µM
same,TGI,NCI-H522 lung,77.2 µM
same,GI50,NCI/ADR-RES ovarian,> 100 µM
same,TGI,NCI/ADR-RES ovarian,> 100 µM
same,GI50,OVCAR-3 ovarian,8.43 µM
same,TGI,OVCAR-3 ovarian,> 100 µM
same,GI50,OVCAR-4 ovarian,6.49 µM
same,TGI,OVCAR-4 ovarian,> 100 µM
same,GI50,OVCAR-5 ovarian,2.95 µM
same,TGI,OVCAR-5 ovarian,26.8 µM
same,GI50,OVCAR-8 ovarian,7.01 µM
same,TGI,OVCAR-8 ovarian,> 100 µM
same,GI50,PC-3 prostate,3.47 µM
same,TGI,PC-3 prostate,> 100 µM
same,GI50,RPMI-8226 leukemia,5.24 µM
same,TGI,RPMI-8226 leukemia,> 100 µM
same,GI50,RXF 393 renal,1.84 µM
same,TGI,RXF 393 renal,4.71 µM
same,GI50,SF-268 CNS,8.2 µM
same,TGI,SF-268 CNS,> 100 µM
same,GI50,SF-295 CNS,2.77 µM
same,TGI,SF-295 CNS,12.9 µM
same,GI50,SF-539 CNS,3.93 µM
same,TGI,SF-539 CNS,30.4 µM
same,GI50,SK-MEL-2 melanoma,5.34 µM
same,TGI,SK-MEL-2 melanoma,27.8 µM
same,GI50,SK-MEL-28 melanoma,5.83 µM
same,TGI,SK-MEL-28 melanoma,> 100 µM
same,GI50,SK-MEL-5 melanoma,5.14 µM
same,TGI,SK-MEL-5 melanoma,> 100 µM
same,GI50,SK-OV-3 ovarian,92.7 µM
same,TGI,SK-OV-3 ovarian,> 100 µM
same,GI50,SN12C renal,7.32 µM
same,TGI,SN12C renal,> 100 µM
same,GI50,SNB-19 CNS,9.49 µM
same,TGI,SNB-19 CNS,> 100 µM
same,GI50,SNB-75 CNS,1.45 µM
same,TGI,SNB-75 CNS,> 100 µM
same,GI50,SR leukemia,3.67 µM
same,TGI,SR leukemia,> 100 µM
same,GI50,SW-620 colon,9.18 µM
same,TGI,SW-620 colon,> 100 µM
same,GI50,T-47D breast,3.72 µM
same,TGI,T-47D breast,> 100 µM
same,GI50,TK-10 renal,12.7 µM
same,TGI,TK-10 renal,> 100 µM
same,GI50,U251 CNS,4.21 µM
same,TGI,U251 CNS,61.9 µM
same,GI50,UACC-257 melanoma,5.87 µM
same,TGI,UACC-257 melanoma,> 100 µM
same,GI50,UACC-62 melanoma,6.14 µM
same,TGI,UACC-62 melanoma,> 100 µM
same,GI50,UO-31 renal,18.5 µM
same,TGI,UO-31 renal,> 100 µM
